# Measured values from patent publication US20230381142A1, “ANTILEISHMANIAL COMPOUNDS, COMPOSITIONS AND USE THEREOF” (TRUSTEES OF BOSTON UNIVERSITY, priority 2022, published 2023).
# Where two headings read alike, the source gives them in different places.
# Key:
# [1] = system: L. donovani intracellular amastigotes infecting THP-1 macrophages; experiment: GSK intramacrophage L. donovani assay (LD AMMAC, inMac; Assay Conditions C); assay type: cell-based; conditions: Leishmania donovani
# In short: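 EC50 values come from counting amastigotes per infected THP-1 macrophage (AMMAC). Parallel read-outs give percentage of infected cells per well (INFCELL) and a macrophage-number toxicity EC50 (MAC).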
# host THP-1 macrophages = experiment: GSK inMac assay, host cell toxicity readout (LD MAC); assay type: cell-based, human; conditions: for EC50: Homo sapiens, THP-1, cytotoxicity against host THP-1 macrophages; for THP-1 Host Cell CC50: host THP-1 cells
# In short: (§1)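 MAC EC50 reflects THP-1 host cell counts, measured within GSK's inMac L. donovani infection assay that also scores intracellular amastigotes and infected-cell percentage.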
# HepG2 cells = experiment: HepG2 cytotoxicity; assay type: cell-based; conditions: Homo sapiens; toxicity against HepG2 cells
# Procedure: Given the literature precedents described above and the apparent narrow tolerance for R^3 substitutions observed in the primary screen compounds, a thorough and methodical assessment was undertaken of tolerated groups at the three points of diversity (R^1/R^2/R^3) for the core. At this stage of the project, all analogues were assessed using a battery of assays performed in-house at GlaxoSmithKline. For antileishmanial activity, GSK's inMac assay was utilized. This assay provides two readouts of compound potency: average number of intracellular amastigotes per infected cell (AMMAC) EC50, percentage of infected cells per well (INFCELL) EC50, as well as a toxicity output derived from the number of host cells (MAC EC50). In addition, compounds were assessed for toxicity against HepG2 cells (HEPG2 EC50). Here, AMMAC EC50 values were focused on for relative potency assessments. […] It should be noted that for all compounds assessed in this project, the measured toxicity against THP-1 macrophages either equaled or exceeded that of HepG2 hepatocytes, therefore the MAC SI is used here as the more conservative estimate of therapeutic index.
# [2] = Kinetic aqueous solubility by CLND; assay type: physicochemical; conditions: kinetic from dmso stock, high-throughput CLND
# Procedure: Solubility of compounds using ChemiLuminescent Nitrogen Detection (CLND) was measured as described. Solubility of compounds using Charged Aerosol Detection (CAD) was measured as described. Solubility of solid compounds in Fasted Simulated Intestinal Fluid (FaSSIF) was measured as described.
# [3] = Artificial membrane permeability (AMP); assay type: in vitro ADME; conditions: PAMPA, pH 7.4
# Procedure: Passive permeability of compounds via rate of permeation through an artificial phospholipid membrane at pH 7.4 was measured in a high-throughput format, in duplicate. A solution of 1.8% phosphatidylcholine in 1% decane was added to a 96-well Millicell filter plate along with 250 μL of 50 mM phosphate buffer, pH 7.4 on the donor side, and 100 μL of the same buffer solution on the receiver side. The assay plate was shaken for 45 minutes before adding test compounds. Test compounds were then added to the filter plate and then incubated at room temperature with shaking for three hours. The donor and receiver solutions were next transferred to a 384-well plate for analysis by LC/MS.
# human serum albumin = human serum albumin (Homo sapiens, UniProt P02768); experiment: Human serum albumin (HSA) binding, chromatographic; assay type: in vitro ADME
# Sequence of human serum albumin (P02768 25-609): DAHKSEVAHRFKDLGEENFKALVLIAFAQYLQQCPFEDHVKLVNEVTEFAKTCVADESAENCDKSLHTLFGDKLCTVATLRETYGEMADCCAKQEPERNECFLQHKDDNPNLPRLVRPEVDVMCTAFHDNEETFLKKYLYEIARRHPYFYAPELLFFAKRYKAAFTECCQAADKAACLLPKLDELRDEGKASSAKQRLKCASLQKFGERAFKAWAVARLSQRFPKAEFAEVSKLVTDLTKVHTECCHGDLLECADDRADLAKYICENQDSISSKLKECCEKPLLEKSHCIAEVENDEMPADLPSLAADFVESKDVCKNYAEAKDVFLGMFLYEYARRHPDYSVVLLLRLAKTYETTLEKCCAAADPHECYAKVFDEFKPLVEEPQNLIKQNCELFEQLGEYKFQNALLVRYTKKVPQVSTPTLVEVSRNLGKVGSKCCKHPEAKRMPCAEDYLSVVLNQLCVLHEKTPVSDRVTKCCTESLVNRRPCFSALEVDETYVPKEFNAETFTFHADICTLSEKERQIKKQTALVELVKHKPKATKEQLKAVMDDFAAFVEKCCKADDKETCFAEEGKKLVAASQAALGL
# Procedure: The percentage of compound bound to human serum albumin was measured using a chromatographic method as described. Briefly, each compound was assayed on an immobilized HSA column and gradient retention times measured, with chromatographic peak detection by UV. Each retention time was then converted to a % HSA bound value using a calibration set of compounds with a known % HSA binding.
# [4] = Property forecast index (PFI = ChromLogD7.4 + aromatic rings); assay type: physicochemical
# Procedure: At the outset of the project, compound 1 was evaluated against GSK's established criteria for antileishmanial compound advancement (Table 2). Some of these assessments were performed on racemic 1, while chiral separation was also pursued of the 1 racemate to determine the active enantiomer. […] Based on this promising profile, it progressed into medicinal chemistry optimization to better understand structure-activity relationships (SAR) toward improved potency, as well as structure-property relationships (SPR) with an eye toward reducing PFI and plasma protein binding.
# [5] = GSK inMac assay, host cell toxicity readout (LD MAC); assay type: cell-based, human; conditions: human
# In short: as §1
# [6] = system: L. donovani intracellular amastigotes in B10R cells; experiment: UCSD L. donovani infection assay (Assay Conditions D); assay type: cell-based; conditions: B10R cells; for L. donovani amastigotes EC75 (B10R cells): footnote d
# In short: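 Compounds, either single-point at 10 μM or 10-point 2-fold series (3 technical, 2 biological replicates), were incubated 72 h at 37° C. with B10R host cells co-seeded with day-7 stationary L. donovani promastigotes (20:1). DAPI-stained nuclei imaging yielded intracellular parasite EC50 and host-cell CC50.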
# [7] = growth inhibition of L. donovani intracellular amastigotes infecting THP-1 macrophages, read-out: LD AMMAC EC50
# [8] = aqueous medium (not further specified)
# [9] = values marked c: THP-1 cells, read-out: L. donovani amastigotes EC50 (μM, THP-1 or B10R cells)
# [10] = THP-1 cells, values marked c, read-out: L. donovani amastigotes EC50 (THP-1 cells)
# [11] = footnote c, read-out: THP-1 Host Cell CC50
Compound,"EC50 [1, 7]",Papp at 3 h [3],HSA Binding (human serum albumin),PFI [4],"solubility [2, 8]",EC50 (host THP-1 macrophages),EC50 (HepG2 cells),further results
COc1ccc(N2C(=O)c3[nH]nc(CC(C)(C)C)c3C2c2ccc(F)cc2)cc1 (stereo not shown) [Compound 10],2.5 µM,17 ×10⁻⁶ cm/s,97.4%,9.0,,25.1 µM,39.8 µM,solubility [2]: 36 µM
"COc1ccc(N2C(=O)c3[nH]nc(CC(C)C)c3C2c2ccc(F)cc2C)cc1 (stereo not shown) [Compound 64, 4-(4-fluoro-2-methylphenyl)-3-isobutyl-5-(4-methoxyphenyl)-4,5-dihydropyrrolo[3,4-c]pyrazol-6(1H)-one]",0.5 µM,11 ×10⁻⁶ cm/s,97.2%,8.8,43 µM,25.1 µM,50.1 µM,
COc1ccc(N2C(=O)c3[nH]nc(CC(C)C)c3C2c2ccc(F)cc2)cn1 (stereo not shown) [Compound 31],10 µM,26 ×10⁻⁶ cm/s,95.5%,8.0,194 µM,> 50 µM,> 100 µM,
COc1ccc(CN2C(=O)c3[nH]nc(CC(C)C)c3C2c2ccc(F)cc2)cc1 (stereo not shown) [Compound 34],12.6 µM,55 ×10⁻⁶ cm/s,98.2%,9.0,45 µM,31.6 µM,50.1 µM,
CC(C)Cc1n[nH]c2c1C(c1ccc(F)cc1)N(c1ccc(N3CCCC3=O)cc1)C2=O (stereo not shown) [CMLD011560],,,,,,,,"EC50 [1, 9]: 4 µM; CC50 ([5]; host THP-1 cells): 20 µM; L. donovani amastigotes EC75 (μM, B10R cells) [6]: 1.0 µM"
"CC(C)Cc1n[nH]c2c1C(c1ccc(F)cc1)N(c1ccc(Br)cc1)C2=O (stereo not shown) [Compound 24, 5-(4-bromophenyl)-4-(4-fluorophenyl)-3-isobutyl-4,5-dihydropyrrolo[3,4-c]pyrazol-6(1H)-one]",1.3 µM,32 ×10⁻⁶ cm/s,97.9%,9.7,,15.8 µM,39.8 µM,solubility ([2]; aqueous (not further specified)): 9 µM
C=CCCc1n[nH]c2c1C(c1ccc(F)cc1)N(c1ccc(OC)cc1)C2=O (stereo not shown) [Compound 12],1.6 µM,41 ×10⁻⁶ cm/s,97.5%,8.1,,3.2 µM,50.1 µM,solubility [2]: 135 µM
COCCN1C(=O)c2[nH]nc(CC(C)C)c2C1c1ccc(F)cc1 (stereo not shown) [Compound 41],> 50 µM,52 ×10⁻⁶ cm/s,90.2%,6.7,≥ 421 µM,> 50 µM,> 100 µM,
"COc1ccc(N2C(=O)c3[nH]nc(CC(C)C)c3C2c2ccccc2OC)cc1 (stereo not shown) [Compound 57, 3-isobutyl-4-(2-methoxyphenyl)-5-(4-methoxyphenyl)-4,5-dihydropyrrolo[3,4-c]pyrazol-6(1H)-one]",0.5 µM,35 ×10⁻⁶ cm/s,95.7%,8.6,57 µM,25.1 µM,6.3 µM,
COc1ccc(N2C(=O)c3[nH]nc(CC(C)C)c3C2C2CCCCC2)cc1 (stereo not shown) [Compound 52],7.9 µM,33 ×10⁻⁶ cm/s,97.6%,8.5,29 µM,25.1 µM,50.1 µM,
CC(C)Cc1n[nH]c2c1C(c1ccc(F)cc1)N(c1ccccn1)C2=O (stereo not shown) [Compound 33],20 µM,20 ×10⁻⁶ cm/s,96.6%,8.5,219 µM,> 50 µM,> 100 µM,
COc1ncc(N2C(=O)c3[nH]nc(CC(C)C)c3C2c2ccc(F)cc2)cc1C (stereo not shown) [CMLD011555],,,,,,,,"EC50 [1, 9]: 10 µM; CC50 ([5]; host THP-1 cells): 20 µM; L. donovani amastigotes EC75 (μM, B10R cells) [6]: 1.7 µM"
C#CCn1nc(CC(C)C)c2c1C(=O)N(c1ccc(OC)cc1)C2c1ccc(F)cc1 (stereo not shown) [CMLD010987],,,,,,,,"EC50 [1, 10]: 1.6 µM; CC50 [5, 11]: 20 µM; L. donovani amastigotes EC75 (B10R cells) [6]: 4.0 µM"
CC(C)Cc1n[nH]c2c1C(c1ccc(F)cc1)N(c1ccc(-n3ccnc3)cc1)C2=O (stereo not shown) [Compound 28],2.5 µM,< 0.3 ×10⁻⁶ cm/s,96.3%,8.1,,> 50 µM,> 100 µM,
CC(C)Cc1n[nH]c2c1C(c1ccsc1)N(c1ccc3c(c1)OCO3)C2=O (stereo not shown) [CMLD011136],,,,,,,,"EC50 [1, 9]: 5 µM; CC50 ([5]; host THP-1 cells): ≥ 50.1 µM; L. donovani amastigotes EC75 (μM, B10R cells) [6]: 3.6 µM"
CC(C)Cc1n[nH]c2c1C(c1ccc(F)cc1)N(c1ccc3ncnn3c1)C2=O (stereo not shown) [CMLD010888],,,,,,,,"EC50 [1, 10]: 5 µM; CC50 [5, 11]: > 50 µM; L. donovani amastigotes EC75 (B10R cells) [6]: 2.3 µM"
CCn1cc(N2C(=O)c3[nH]nc(CC(C)C)c3C2c2ccccc2C(F)(F)F)cn1 (stereo not shown) [BUCMD00671],,,,,,,,"THP-1 Host Cell CC50 (host THP-1 macrophages): >10 µM; L. donovani amastigotes EC75 (μM, B10R cells) [6]: >5 µM"
CC(C)Cc1n[nH]c2c1C(c1ccc(F)c(F)c1)N(c1cncc(F)c1)C2=O (stereo not shown) [BUCMD00701],,,,,,,,"THP-1 Host Cell CC50 (host THP-1 macrophages): >10 µM; L. donovani amastigotes EC75 (μM, B10R cells) [6]: >5 µM"
C#CCn1nc2c(c1CC(C)C)C(c1ccc(F)cc1)N(c1ccc(OC)cc1)C2=O (stereo not shown) [CMLD010986],,,,,,,,"EC50 [1, 9]: 3.2 µM; CC50 ([5]; host THP-1 cells): 25.1 µM; L. donovani amastigotes EC75 (μM, B10R cells) [6]: >10 µM"
CC(C)Cc1n[nH]c2c1C(c1ccc(F)cc1)N(CCN1CCCC1)C2=O (stereo not shown) [CMLD011072],,,,,,,,"EC50 [1, 10]: 15.9 µM; CC50 [5, 11]: > 50 µM; L. donovani amastigotes EC75 (B10R cells) [6]: >10 µM"
CCCCc1n[nH]c2c1C(c1ccc(F)cc1)N(c1ccc(OC)cc1)C2=O (stereo not shown) [Compound 11],0.1 µM,,,8.4,,2.5 µM,,"EC50 ([1]; THP-1, read-out: potency (antileishmanial, text to Table 3)): ~0.3 µM"
CC(C)Cc1n[nH]c2c1C(c1ccccc1Cl)N(c1ccc3ncnn3c1)C2=O (stereo not shown) [CMLD010921],,,,,,,,"CC50 [5, 11]: > 20 µM; L. donovani amastigotes EC75 (B10R cells) [6]: 0.6 µM; EC50 ([6]; Leishmania donovani, values marked d, read-out: L. donovani amastigotes EC50 (B10R cells)): 600 nM"

# The next lines start with results.
"EC50 [1, 7]",Papp at 3 h [3],HSA Binding (human serum albumin),PFI [4],"solubility [2, 8]",Compound,EC50 (host THP-1 macrophages),EC50 (HepG2 cells),further results
15.8 µM,29 ×10⁻⁶ cm/s,94.8%,9.0,188 µM,COc1ccc(N2C(=O)c3[nH]nc(CC(C)C)c3C2C2CCN(Cc3ccccc3)CC2)cc1 (stereo not shown) [Compound S1],20 µM,63.1 µM,
15.8 µM,32 ×10⁻⁶ cm/s,89.3%,6.5,≥ 534 µM,COc1ccc(N2C(=O)c3[nH]nc(CC(C)C)c3C2c2cncs2)cc1 (stereo not shown) [Compound S4],> 50 µM,> 100 µM,
20 µM,42 ×10⁻⁶ cm/s,89.5%,7.2,143 µM,COc1ccc(N2C(=O)c3[nH]nc(CC(C)C)c3C2c2nccs2)cc1 (stereo not shown) [Compound S5],> 50 µM,> 100 µM,
31.6 µM,42 ×10⁻⁶ cm/s,86.8%,7.1,≥ 450 µM,COc1ccc(N2C(=O)c3[nH]nc(CC(C)C)c3C2c2ccccn2)cc1 (stereo not shown) [Compound S7],> 50 µM,> 100 µM,
